Test results: patent publication US8952024B2, “Herbicidal pyrimidone derivatives” (E I du Pont de Nemours and Company, priority 2009, dated 2015)

Experiments:
Assay in all cases: Test C plant response
Format in all cases: in vivo
[1] = test system: field poppy (Papaver rhoeas); settings: Preemergence, scale 0 to 100
[2] = test system: canarygrass (Phalaris minor); settings: Preemergence, 125 g ai/ha; scale 0 to 100
[3] = test system: winter barley (Hordeum vulgare); settings: Preemergence, scale 0 to 100
[4] = test system: spring wheat (Triticum aestivum); settings: Preemergence, scale 0 to 100
[5] = test system: Russian thistle (Salsola iberica); settings: Preemergence, scale 0 to 100

Cc1ccccc1-n1c(-c2ccccc2)ncc(C(=O)C2=C(O)CCCC2=O)c1=O [Compound 12]
98: Plant response rating: Field Poppy ([1]; 62 g ai/ha) | Plant response rating: Field Poppy ([1]; 125 g ai/ha)
20: Plant response rating: Canarygrass [2]
80: Plant response rating: Field Poppy ([1]; 31 g ai/ha)
50: Plant response rating: Field Poppy ([1]; 16 g ai/ha)
0: Plant response rating: Barley, Winter ([3]; 62 g ai/ha) | Plant response rating: Barley, Winter ([3]; 125 g ai/ha) | Plant response rating: Barley, Winter ([3]; 16 g ai/ha) | Plant response rating: Barley, Winter ([3]; 31 g ai/ha) | Plant response rating: Wheat, Spring ([4]; 62 g ai/ha) | Plant response rating: Wheat, Spring ([4]; 125 g ai/ha) | Plant response rating: Wheat, Spring ([4]; 16 g ai/ha) | Plant response rating: Wheat, Spring ([4]; 31 g ai/ha) | Plant response rating: Russian Thistle ([5]; 62 g ai/ha) | Plant response rating: Russian Thistle ([5]; 16 g ai/ha) | Plant response rating: Russian Thistle ([5]; 31 g ai/ha)
